Biological target: α-hemolysin (Staphylococcus aureus, UniProt P09616)
Format: biochemical

α-hemolysin, sequence (P09616 27-319 limits assumed): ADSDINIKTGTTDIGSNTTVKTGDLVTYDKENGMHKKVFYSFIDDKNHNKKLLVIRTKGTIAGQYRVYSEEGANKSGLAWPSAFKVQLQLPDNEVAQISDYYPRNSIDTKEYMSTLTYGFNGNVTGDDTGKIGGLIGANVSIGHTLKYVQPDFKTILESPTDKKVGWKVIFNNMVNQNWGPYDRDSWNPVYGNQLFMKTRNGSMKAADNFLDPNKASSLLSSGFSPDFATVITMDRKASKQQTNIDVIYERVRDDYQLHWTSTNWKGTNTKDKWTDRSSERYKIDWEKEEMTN

OC[C@H]1O[C@@H]2O[C@H]3[C@H](O)[C@@H](O)[C@@H](O[C@H]4[C@H](O)[C@@H](O)[C@@H](O[C@H]5[C@H](O)[C@@H](O)[C@@H](O[C@H]6[C@H](O)[C@@H](O)[C@@H](O[C@H]7[C@H](O)[C@@H](O)[C@@H](O[C@H]8[C@H](O)[C@@H](O)[C@@H](O[C@H]9[C@H](O)[C@@H](O)[C@@H](O[C@H]1[C@H](O)[C@H]2O)O[C@@H]9CO)O[C@@H]8CO)O[C@@H]7CO)O[C@@H]6CO)O[C@@H]5CO)O[C@@H]4CO)O[C@@H]3CO [cyclodextrin, γ-Cyclodextrin]
magnitude and lifetime of the reversible blockades of the α-hemolysin pore: consistent with previous reports
reversible blockages of the α-hemolysin pores: reversible blockages of the pores by cyclodextrin are observed

Reference: patent US12259384B2, “Membrane and droplet-interface bilayer systems and methods” (University of Massachusetts, priority 2015, dated 2025)
